Experiments:
[1] = biological target: D(2) dopamine receptor (Rattus norvegicus) (UniProt P61169); experiment: Ratio D2 partial agonist, Ki(D2 Low)/Ki(D2 High), to compare a compounds estimated intrinsic activity.
[2] = biological target: D(2) dopamine receptor (Homo sapiens, UniProt P14416); experiment: biochemical
Description: Affinity for the Dopamine receptor D2S was determined using membranes from CHO cells labeled with [3H]spiperone

[3] = biological target: D(3) dopamine receptor (Homo sapiens, UniProt P35462); experiment: biochemical
Description: Affinity for the Human Dopamine receptor D3 was determined using membranes from CHO cells labeled with [3H]spiperone

[4] = biological target: T1, D(4) dopamine receptor (Homo sapiens, UniProt P21917); experiment: biochemical
T1 sequence (P21917 whole entry): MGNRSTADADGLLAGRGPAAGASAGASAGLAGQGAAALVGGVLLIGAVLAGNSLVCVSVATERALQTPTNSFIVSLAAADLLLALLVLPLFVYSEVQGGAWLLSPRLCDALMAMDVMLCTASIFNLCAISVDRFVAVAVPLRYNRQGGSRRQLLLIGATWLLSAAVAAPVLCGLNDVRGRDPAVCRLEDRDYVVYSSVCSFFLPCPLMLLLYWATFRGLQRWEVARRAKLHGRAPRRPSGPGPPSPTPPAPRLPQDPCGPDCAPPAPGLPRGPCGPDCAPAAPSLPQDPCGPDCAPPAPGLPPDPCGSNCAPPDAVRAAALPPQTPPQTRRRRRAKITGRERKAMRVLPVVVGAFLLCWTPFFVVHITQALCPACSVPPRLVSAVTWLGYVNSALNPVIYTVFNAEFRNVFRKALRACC
Description: Affinity for the Human Dopamine receptor D4 was determined using membranes from CHO cells labeled with [3H]spiperone

[5] = biological target: T2, D(2) dopamine receptor (Rattus norvegicus, UniProt P61169)
T2 sequence (P61169 whole entry): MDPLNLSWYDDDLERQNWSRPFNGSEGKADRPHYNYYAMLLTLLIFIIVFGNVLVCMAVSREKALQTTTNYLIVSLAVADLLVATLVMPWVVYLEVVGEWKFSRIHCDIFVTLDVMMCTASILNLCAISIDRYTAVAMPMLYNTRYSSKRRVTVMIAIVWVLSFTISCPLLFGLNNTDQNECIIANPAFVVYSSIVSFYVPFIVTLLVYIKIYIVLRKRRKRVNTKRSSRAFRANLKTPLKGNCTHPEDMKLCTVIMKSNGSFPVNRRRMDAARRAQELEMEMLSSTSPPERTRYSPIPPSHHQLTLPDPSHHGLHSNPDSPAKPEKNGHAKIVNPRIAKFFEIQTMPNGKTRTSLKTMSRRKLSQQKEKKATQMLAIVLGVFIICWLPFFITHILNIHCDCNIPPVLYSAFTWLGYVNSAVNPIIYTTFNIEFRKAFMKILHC
Description: Affinity of compound for D2 receptor in rat striatal membrane determined for agonist state (high affinity state, D2 High) [3H]quinpirole as radioligand (in the absence of GTP and sodium)

[6] = biological target: T2, D(2) dopamine receptor; remark: listed apart in the source
Description: Affinity of compound for Dopamine receptor D2 in rat striatal membrane determined for antagonist state (low affinity state, D2 Low) with [3H]spiperone (using ketanserin to exclude 5-HT2 receptor binding) in the presence of GTP and sodium

D(2) dopamine receptor (Rattus norvegicus), sequence (P61169 whole entry, looked up): as the sequence (P61169 whole entry) above
D(2) dopamine receptor (Homo sapiens, UniProt P14416), sequence (P14416 whole entry): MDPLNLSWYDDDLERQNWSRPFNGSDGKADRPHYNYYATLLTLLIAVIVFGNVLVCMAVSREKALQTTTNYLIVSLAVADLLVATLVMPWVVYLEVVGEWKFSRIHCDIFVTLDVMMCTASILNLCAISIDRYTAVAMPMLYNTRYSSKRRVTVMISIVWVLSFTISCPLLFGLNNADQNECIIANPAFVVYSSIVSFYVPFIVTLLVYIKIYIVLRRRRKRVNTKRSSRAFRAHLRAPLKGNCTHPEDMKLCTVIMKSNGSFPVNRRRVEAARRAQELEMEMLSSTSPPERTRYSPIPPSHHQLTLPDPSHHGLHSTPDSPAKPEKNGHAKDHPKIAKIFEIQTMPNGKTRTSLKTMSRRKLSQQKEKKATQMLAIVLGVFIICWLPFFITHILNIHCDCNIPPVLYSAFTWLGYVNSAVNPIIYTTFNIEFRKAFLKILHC
D(3) dopamine receptor, sequence (P35462 whole entry): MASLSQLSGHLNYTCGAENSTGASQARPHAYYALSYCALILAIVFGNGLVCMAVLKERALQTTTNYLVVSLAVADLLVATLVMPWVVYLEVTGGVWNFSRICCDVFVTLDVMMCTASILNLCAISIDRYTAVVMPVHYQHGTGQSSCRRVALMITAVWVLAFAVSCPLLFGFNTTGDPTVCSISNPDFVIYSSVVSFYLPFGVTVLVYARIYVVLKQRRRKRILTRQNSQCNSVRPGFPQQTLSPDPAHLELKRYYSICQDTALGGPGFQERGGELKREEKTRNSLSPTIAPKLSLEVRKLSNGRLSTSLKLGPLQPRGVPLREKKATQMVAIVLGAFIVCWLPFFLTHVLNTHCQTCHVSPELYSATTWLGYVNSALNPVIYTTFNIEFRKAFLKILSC

Row | Ratio [1] | Ki [2] [nM] | Ki [3] [nM] | Ki [4] [nM] | Ki [5] [nM] | Ki [6] [nM] | SMILES
1 | 50 |  |  |  |  |  | Oc1nc2c3c(ccc2[nH]1)CCC(CNCc1ccccc1)O3 (racemic)
2 | 69 |  |  |  |  |  | Oc1nc2c3c(ccc2[nH]1)CC[C@H](CNCc1ccccc1)O3
3 | 42 | 9.3 | 2.4 | 359 |  |  | O=C1Cc2c(ccc3c2O[C@@H](CNCc2ccccc2)CC3)N1
4 |  | 5 | 1 | 10 | 0.14 | 7.01 | O=c1[nH]c2ccc3c(c2[nH]1)OC(CNCc1ccccc1)CC3 (racemic)
5 | 11 |  |  |  |  |  | FC(F)(F)c1nc2c3c(ccc2[nH]1)CCC(CNCc1ccccc1)O3 (racemic)
6 | 12 |  |  |  |  |  | Oc1nc2c3c(ccc2[nH]1)CC[C@@H](CNCc1ccccc1)O3
7 |  | 67 | 81 | 313 | 5.45 | 67.5 | O=c1[nH]c2ccc3c(c2[nH]1)O[C@H](CNCc1ccccc1)CC3
8 |  | 132 | 263 | 37 | 5.75 | 65.1 | FC(F)(F)c1nc2ccc3c(c2[nH]1)OC(CNCc1ccccc1)CC3 (racemic)
9 |  | 3 | 0.4 | 7 | 0.07 | 4.81 | O=c1[nH]c2ccc3c(c2[nH]1)O[C@@H](CNCc1ccccc1)CC3
10 | 24 | 107 | 34 | 2170 |  |  | c1ccc(CNC[C@H]2CCc3ccc4[nH]ccc4c3O2)cc1
